Laboratory results published in patent US9676754B2, “Triazolone compounds and uses thereof” (Inception 2, Inc., priority 2012, dated 2017).
Read-outs that look alike come from different tables or passages of the source.

Columns and labels:
PPAR gamma = target: T1, PPAR gamma (Homo sapiens, UniProt P37231); experiment: Target selectivity counterscreen, PPAR γ reporter assay; format: cell-based; details: receptor agonist at ~EC80
T1 construct: host or cells: engineered reporter cells of the kit (analogous to the human PPARα kit)
T1 sequence (P37231 1-505): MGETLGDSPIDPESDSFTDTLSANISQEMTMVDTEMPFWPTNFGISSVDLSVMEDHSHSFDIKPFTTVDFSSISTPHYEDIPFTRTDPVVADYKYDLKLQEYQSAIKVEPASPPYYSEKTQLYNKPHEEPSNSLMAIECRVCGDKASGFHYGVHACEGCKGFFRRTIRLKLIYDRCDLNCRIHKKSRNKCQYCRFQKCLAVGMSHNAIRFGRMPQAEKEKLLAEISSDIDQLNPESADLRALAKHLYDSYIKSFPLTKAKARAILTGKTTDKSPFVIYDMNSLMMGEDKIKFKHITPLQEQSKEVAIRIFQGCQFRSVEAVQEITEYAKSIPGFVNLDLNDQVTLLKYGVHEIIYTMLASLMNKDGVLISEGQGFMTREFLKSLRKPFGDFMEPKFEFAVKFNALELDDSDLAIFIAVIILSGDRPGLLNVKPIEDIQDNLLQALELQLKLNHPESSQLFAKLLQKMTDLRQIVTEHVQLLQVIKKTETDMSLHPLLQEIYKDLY
Experimental: Target Selectivity Assays
To determine species selectivity, a Mouse PPARα Reporter Assay System was used (Indigo Biosciences, Cat. #M00111). Activity of test compounds to antagonize or agonize other isoforms of human PPAR, for example β/δ and γ, were assessed using the corresponding kits from Indigo Biosciences (Cat. #IB00121 and #IB00101, respectively). In addition to PPAR activity, compounds were also screened for activity against other nuclear hormone receptors including Estrogen Receptor β, Glucocorticoid Receptor and Thyroid Receptor β using commercially available kits (Indigo Biosciences, Cat. #IB00411, IB00201 and IB01101, respectively). Each assay system from Indigo Biosciences uses technology analogous to the human PPARα kit, with the variance being that the cells used for each assay were engineered to over-express the receptor of interest. In addition, the appropriate receptor agonist (included with each kit) was used at ˜EC80 for assays in which antagonist potency was being assessed.

Human PPARα = target: T2, Human PPARα (Homo sapiens, UniProt Q07869); experiment: Human PPARα Reporter Assay (luciferase); format: cell-based
T2 construct: host or cells: proprietary non-human mammalian cells
T2 sequence (Q07869 1-468): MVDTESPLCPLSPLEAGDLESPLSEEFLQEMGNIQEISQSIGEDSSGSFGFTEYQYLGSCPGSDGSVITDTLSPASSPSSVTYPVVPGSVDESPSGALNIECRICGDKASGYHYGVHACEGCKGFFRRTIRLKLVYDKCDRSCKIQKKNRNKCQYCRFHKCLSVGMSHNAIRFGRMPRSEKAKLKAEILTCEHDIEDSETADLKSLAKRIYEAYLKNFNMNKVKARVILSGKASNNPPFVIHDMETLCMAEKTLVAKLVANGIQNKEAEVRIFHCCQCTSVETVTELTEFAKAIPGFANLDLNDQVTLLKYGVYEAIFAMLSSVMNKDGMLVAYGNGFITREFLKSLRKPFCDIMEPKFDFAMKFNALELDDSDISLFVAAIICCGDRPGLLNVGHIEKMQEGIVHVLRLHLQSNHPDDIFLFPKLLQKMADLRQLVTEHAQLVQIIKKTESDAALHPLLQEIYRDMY
Experimental: Human PPARα Reporter Assay
The screening of test compounds for agonist or antagonist activities against human PPARα receptors was performed using a commercial kit, Human PPARα Reporter Assay System (Indigo Biosciences, Cat. #IB00111).
This nuclear receptor assay system utilizes proprietary non-human mammalian cells engineered to provide constitutive, high-level expression of Human PPARα. Because these cells incorporate a PPARα-responsive luciferase reporter gene, quantifying expressed luciferase activity provides a sensitive surrogate measure of PPARα activity in the treated cells. The primary application of this reporter assay system is in the screening of test samples to quantify any functional activity, either agonist or antagonist, that they may exert against human PPARα. […] Briefly, the reporter cells are dispensed into wells of the assay plate and then immediately dosed with test compounds. Following an overnight incubation, the treatment media are discarded and Luciferase Detection Reagent (LDR) is added. The intensity of light emission from the ensuing luciferase reaction provides a sensitive measure that is directly proportional to the relative level of PPARα activation in the reporter cells.

IC50 (PPAR gamma): 39800 nM | IC50 (Human PPARα; antagonist activity, luciferase reporter cells, overnight incubation, read-out: Human PPARα Reporter Assay-Luciferase IC50): 58 nM | IC50 (Human PPARα; counterscreen assay results table, read-out: PPAR alpha IC50): 58 nM
Structure (SMILES): CCOc1ccc(-c2cccc(CCCc3nn(Cc4ccc(C(C)(C)C)cc4)c(=O)n3CC)c2)cc1CC(=O)O [Example 6, 2-(3′-(3-(1-(4-(tert-Butyl)benzyl)-4-ethyl-5-oxo-4,5-dihydro-1H-1,2,4-triazol-3-yl)propyl)-4-ethoxy-[1,1′-biphenyl]-3-yl)acetic acid]
